Source: patent US10712339B2, “Engineering of a novel breast tumor microenvironment on a microfluidic chip” (Arizona Board of Regents on behalf of Arizona State …, priority 2014, dated 2020)

System: Endothelial cells (HUVECs)
From the text: To study vasculogenesis and to optimize the ECM composition for endothelial cell sprouting, we first developed a microfluidic model comprised of a single culture region surrounded by the media region. This device was selected to study endothelial growth without the interference of other cell types or the stroma. Since the media channel is in a different compartment from the cell culture region, it facilitated the development of a gradient of biomolecules. To encapsulate endothelial cells fibrin was chosen, as it is known to play a major role in regulating angiogenesis in 3D ECM. Endothelial cells (HUVECs) at a cell density of 20 million cells/ml were injected into the devices and growth and maturation of vascular networks were monitored over a culture period of 5 days. We introduced vascular endothelial growth factor (VEGF) in to the culture media and assessed the subsequent effects on vasculogenesis. VEGF is known as a major growth factor secreted during cancer progression which leads to formation of new blood vessels. […] We primarily compared the diameter and branching of vascular networks and further assessed the permeability of microvessels within each experimental condition.

Q: Which permeability of microvessels (VEGF in culture media vs No VEGF control) does the source give for VEGF here?
A: higher permeability

Q: What about the “structure of endothelial networks” value (VEGF in culture media vs No VEGF control, 5 day culture) of the same substance?
A: impaired structurally

Q: And the “diameter of the formed vascular networks” value (addition of VEGF, endothelial mono-culture in single layer platform)?
A: reduced

Q: And the “endothelial cell morphology and intercellular connections” value (low and high VEGF conditions vs No VEGF control, from day 1)?
A: elongated morphology with intercellular connections
